Experimental data taken from paper PMC10184313, “Inhibition of Thiamine Diphosphate-Dependent Enzymes by Triazole-Based Thiamine Analogues” (ACS Medicinal Chemistry Letters, 2023).
Like-named read-outs stand apart in the source and are kept apart here.

Tests used:
E. coli OGDHc E1 = target: T1, E. coli OGDHc E1 (Escherichia coli, UniProt P0AFG3); experiment: E. coli OGDHc E1 inhibitory activity assay (DCPIP reduction); type: biochemical
T1 sequence (P0AFG3 1-933): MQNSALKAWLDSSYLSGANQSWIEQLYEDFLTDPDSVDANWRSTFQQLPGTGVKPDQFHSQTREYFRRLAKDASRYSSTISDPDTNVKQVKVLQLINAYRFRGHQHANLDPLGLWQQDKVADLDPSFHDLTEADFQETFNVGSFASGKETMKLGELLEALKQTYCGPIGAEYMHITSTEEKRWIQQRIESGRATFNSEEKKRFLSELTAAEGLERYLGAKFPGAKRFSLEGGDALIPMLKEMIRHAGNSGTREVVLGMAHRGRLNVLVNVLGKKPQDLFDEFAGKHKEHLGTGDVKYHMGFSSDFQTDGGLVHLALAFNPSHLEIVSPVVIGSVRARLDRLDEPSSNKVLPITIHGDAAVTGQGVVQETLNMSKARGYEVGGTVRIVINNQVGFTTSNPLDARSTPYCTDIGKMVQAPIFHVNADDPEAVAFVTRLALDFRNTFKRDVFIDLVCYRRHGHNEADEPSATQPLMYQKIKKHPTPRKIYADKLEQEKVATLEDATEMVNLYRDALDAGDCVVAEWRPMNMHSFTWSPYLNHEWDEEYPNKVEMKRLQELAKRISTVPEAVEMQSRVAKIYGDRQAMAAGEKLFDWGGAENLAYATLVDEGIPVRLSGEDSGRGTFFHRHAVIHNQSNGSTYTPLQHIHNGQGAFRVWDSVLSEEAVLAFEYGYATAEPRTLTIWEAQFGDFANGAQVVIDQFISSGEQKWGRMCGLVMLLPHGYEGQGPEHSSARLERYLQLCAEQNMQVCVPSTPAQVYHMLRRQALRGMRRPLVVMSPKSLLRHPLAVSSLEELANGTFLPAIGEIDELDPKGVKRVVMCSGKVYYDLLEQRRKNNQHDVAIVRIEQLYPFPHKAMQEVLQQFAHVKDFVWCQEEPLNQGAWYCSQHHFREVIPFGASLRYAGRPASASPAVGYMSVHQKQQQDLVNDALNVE
Protocol: E. coli OGDHc E1 inhibitory activity assay. E. coli OGDHc E1 was from our previous work 5 and had been donated by R. Frank. Its activity was determined by monitoring DCPIP reduction at 600 nm using a microplate reader (CLARIOstar) and conducted as described 1,2 with some modifications. The percentage inhibition of compounds against E. coli OGDHc E1 was assayed at a final concentration of 250 µM. The reaction buffer (50 mM KH 2PO4 and 2 mM MgCl 2, pH 7) contained 50 µM ThDP (or 125 µM in the competition assay), 0.5 mM DCPIP, and 6.7 mg/ml E. coli OGDHc E1. The reaction mixture was preincubated at 37 °C for 60 min, then reaction was initiated by adding α-ketoglutarate to a final concentration of 10 mM. To determine the IC 50, ThDP concentration was lowered to 30 µM, and inhibitor concentration was varied (2-1000 µM). Specific activity was calculated using the molar […]
for the PDHc E1 assay. […] 5 […]

P. falciparum strain 3D7 = experiment: Anti-plasmodial activity assay (SYBR-Safe); type: cell-based, Plasmodium falciparum; details: Plasmodium falciparum
Protocol: Next the effects of the thiamine/ThDP analogues on in vitro proliferation of the 3D7 strain of P. falciparum were determined. […] Parasite proliferation was measured by SYBR-Safe assay of parasite DNA.[11],[15]
(§1) Cell-based assays (Results)
(§2) Anti-plasmodial activity assay. This study used human malaria parasite P. falciparum strain 3D7 (chloroquine-sensitive) and the same strain expressing an extra copy of TPK with a GFP-tag ( PfTPK-GFP) generated as previously described. 9 The intraerythrocytic stage of the parasites were maintained essentially as previously described. 10 Compounds were tested at concentrations up to a highest final […]
(§3) were prepared in dimethyl sulfoxide (DMSO) followed by dilution in RPMI 1640 medium in the absence of thiamine or in the presence of 2.97 µM (or 297 µM) thiamine. The final concentration of DMSO that the parasites were exposed to never exceeded 0.05%. Two-fold serial dilutions were then performed, with each concentration tested in triplicate. The assay was performed as described 11 with some modifications. Experiments were initiated with parasites in the ring-stage, a parasitemia level of 0.5% and a haematocrit of 2%. Chloroquine (0.5 µM) was used as the positive control ( i.e. complete inhibition of parasite proliferation), and parasites maintained in the absence of any inhibitor represented 100% parasite proliferation. The final volume in each well was 200 µL. Plates were incubated at 37 °C, under an atmosphere of 96% nitrogen, 3% carbon dioxide and 1% oxygen. Parasite proliferation was measured by performing SYBR-Safe assay. 12 The concentration at which the compound suppresses […]
Excel and analysed by non-linear regression plot using GraphPad Prism. The data were averaged from three independent experiments. […]

in vitro = type: cell-based, human; details: human
Protocol: as §1, §2, §3
(§4) Excel and analysed by non-linear regression plot using GraphPad Prism. The data were averaged from three independent experiments.
(§5) Cytotoxicity assay. This study used HFF cells (human foreskin fibroblasts) as described 13 with some modifications. The HFF cells were seeded in 96-well plates at a density of about 13 x 10^4 cells/mL.
(§6) Plates were incubated at 37 °C in a humidified 5% carbon dioxide incubator for 96 h. A sample of the supernatant (150 µL) was then carefully aspirated from each well and discarded. The plates were then stored at -80 °C. SYBR- Safe assay was used. The plates were thawed, SYBR-Safe lysis solution (150 µL) was added to each well and mixed via pipetting to ensure the HFF cells were detached from the plate and lysed. The plates were then processed as described for the anti-plasmodial assay.

HFF cells = experiment: in vitro; type: cell-based, human; details: IC50 (thiamine-free) vs HFF cytotoxicity
Protocol: as §1, §2, §3, §4, §5, §6

[1] = [Compound] = 250 μM, [ThDP] = 50 μM
[2] = increased ThDP: [Compound] = 250 μM, [ThDP] = 125 μM
[3] = 3D7, 3D7, [Thiamine] = 2.97 μM, read-out: IC50 of Suppression of P. falciparum proliferation, [Thiamine] = 2.97 μM
[4] = 3D7, 3D7, [Thiamine] = 297 μM, read-out: IC50 of Suppression of P. falciparum proliferation, [Thiamine] = 297 μM
[5] = 3D7, 3D7, thiamine-free medium, read-out: IC50 of Suppression of P. falciparum proliferation, Thiamine-free

Row | Compound | inhibition at 250 µM (E. coli OGDHc E1; [1]) [%] | inhibition at 250 µM (E. coli OGDHc E1; [2]) [%] | other results
1 | COc1ccccc1C(=O)NCCCc1cn(Cc2cnc(C)nc2N)nn1 [Compound 22b] | 56 ± 3 |  | 
2 | Cc1ncc(Cn2cc(CCOC(=O)c3cccc(C#N)c3)nn2)c(N)n1 [Compound 14a] | < 20 |  | 
3 | Cc1ncc(Cn2cc(CCCn3cc(-c4ccccc4)nn3)nn2)c(N)n1 [Compound 15b] | < 20 | < 20 | 
4 | Cc1ncc(Cn2cc(CCCCNS(=O)(=O)C(F)(F)F)nn2)c(N)n1 [Compound 18c] | 58 ± 4 |  | 
5 | Cc1ncc(Cn2cc(CCCCn3cc(-c4ccccc4)nn3)nn2)c(N)n1 [Compound 15c] | < 20 | < 20 | 
6 | COc1ccc(-c2cn(CCc3cn(Cc4cnc(C)nc4N)nn3)nn2)cc1 [Compound 17a] | 21 ± 3 | < 20 | IC50 (P. falciparum strain 3D7; [3]): 156 ± 13 µM; IC50 (P. falciparum strain 3D7; [4]): 169 ± 11 µM; IC50 (P. falciparum strain 3D7; [5]): 129 ± 9 µM; IC50 at 96 h (in vitro): > 200 µM
7 | COc1ccc(-c2cn(CCCc3cn(Cc4cnc(C)nc4N)nn3)nn2)cc1 [Compound 17b] | < 20 | < 20 | IC50 (P. falciparum strain 3D7; [3]): 78 ± 8 µM; IC50 (P. falciparum strain 3D7; [4]): 82 ± 11 µM; IC50 (P. falciparum strain 3D7; [5]): 51 ± 3 µM; IC50 at 96 h (in vitro): 90 ± 5 µM; Selectivity Index (HFF cells): 1.8
8 | Cc1ncc(Cn2cc(CCCCC(=O)NO)nn2)c(N)n1 [Compound 24c] | > 90 | 82 ± 2 | IC50 (E. coli OGDHc E1; [ThDP] 30 μM): 15 ± 3 µM; Ki (E. coli OGDHc E1; determined according to the KM for ThDP): 1460 nM; IC50 (P. falciparum strain 3D7; [3]): 3.8 ± 2 µM; IC50 (P. falciparum strain 3D7; [4]): 4 ± 1.8 µM; IC50 at 96 h (in vitro): 44 ± 4 µM; Selectivity Index (HFF cells): 14.7
9 | Cc1ncc(Cn2cc(CCOC(=O)c3cccc(-c4noc(C(F)(F)F)n4)c3)nn2)c(N)n1 [Compound 13a] | < 20 |  | 
10 | Cc1ncc(Cn2cc(CCCn3cc(-c4ccc(F)cc4)nn3)nn2)c(N)n1 [Compound 16b] | < 20 | < 20 | IC50 (P. falciparum strain 3D7; [3]): > 200 µM; IC50 (P. falciparum strain 3D7; [4]): > 200 µM; IC50 (P. falciparum strain 3D7; [5]): > 200 µM; IC50 at 96 h (in vitro): > 200 µM
11 | Cc1ncc(Cn2cc(CCC(=O)Nc3ccccc3N)nn2)c(N)n1 [Compound 26a] | 63 ± 2 |  | 
12 | Cc1ncc(C[n+]2csc(CCO[P@@](=O)(O)OP(=O)(O)O)c2C)c(O)n1 [OxThDP 7b, oxythiamine diphosphate, reference compound] | 62 ± 4 | 41 ± 4 | 
13 | COc1cccc(C(=O)NCCCCc2cn(Cc3cnc(C)nc3N)nn2)c1 [Compound 21c] | 25 ± 3 |  | 
14 | Cc1ncc(Cn2cc(CCCCn3cc(-c4ccc(F)cc4)nn3)nn2)c(N)n1 [Compound 16c] | < 20 | < 20 | IC50 (P. falciparum strain 3D7; [3]): 70 ± 8 µM; IC50 (P. falciparum strain 3D7; [4]): 89 ± 19 µM; IC50 (P. falciparum strain 3D7; [5]): 67 ± 5 µM; IC50 at 96 h (in vitro): 48 ± 5 µM; Selectivity Index (HFF cells): 0.7
15 | COc1cccc(C(=O)NCCCc2cn(Cc3cnc(C)nc3N)nn2)c1 [Compound 21b] | 58 ± 5 |  | 
16 | Cc1ncc(Cn2cc(CCn3cc(-c4ccccc4)nn3)nn2)c(N)n1 [Compound 15a] | 23 ± 3 | < 20 | 
17 | Cc1ncc(Cn2cc(CCC(=O)NO)nn2)c(N)n1 [Compound 24a] | 73 ± 2 |  | 
18 | COc1cccc(C(=O)NCCc2cn(Cc3cnc(C)nc3N)nn2)c1 [Compound 21a] | 63 ± 3 |  | 
19 | Cc1ncc(Cn2cc(CCCO)nn2)c(N)n1 [Compound 9b] | 50 ± 3 |  | 
20 | COc1ccccc1C(=O)NCCCCc1cn(Cc2cnc(C)nc2N)nn1 [Compound 22c] | 35 ± 3 |  | 
21 | Cc1ncc(Cn2cc(CCO)nn2)c(N)n1 [Compound 9a] | 57 ± 4 |  | 
22 | Cc1ncc(Cn2cc(CCCNS(=O)(=O)C(F)(F)F)nn2)c(N)n1 [Compound 18b] | 42 ± 3 |  | 
23 | Cc1ncc(Cn2cc(CCNC(=O)c3cccc(C#N)c3)nn2)c(N)n1 [Compound 20a] | < 20 |  | 
24 | Cc1ncc(Cn2cc(CCNC(=O)c3cccc(-c4noc(C(F)(F)F)n4)c3)nn2)c(N)n1 [Compound 19a] | < 20 |  | 
25 | Cc1ncc(Cn2cc(CCn3cc(-c4ccc(F)cc4)nn3)nn2)c(N)n1 [Compound 16a] | 25 ± 4 | < 20 | IC50 (P. falciparum strain 3D7; [3]): > 200 µM; IC50 (P. falciparum strain 3D7; [4]): > 200 µM; IC50 (P. falciparum strain 3D7; [5]): > 200 µM
26 | Cc1ncc(Cn2cc(CCNS(=O)(=O)C(F)(F)F)nn2)c(N)n1 [Compound 18a] | 48 ± 2 |  | 
27 | Cc1ncc(Cn2cc(CCCC(=O)Nc3ccccc3N)nn2)c(N)n1 [Compound 26b] | 52 ± 2 |  | 
28 | Cc1ncc(Cn2cc(CCCCC(=O)Nc3ccccc3N)nn2)c(N)n1 [Compound 26c] | 30 ± 2 |  | 
29 | Cc1ncc(Cn2cc(CCCCO)nn2)c(N)n1 [Compound 9c] | 51 ± 2 |  | 
30 | COc1ccccc1C(=O)NCCc1cn(Cc2cnc(C)nc2N)nn1 [Compound 22a] | 80 ± 4 |  | 
